Assay results published in PubChem BioAssay (NCI).
Where “and” joins values, the source holds several entries; their conditions need not be identical. Equal values may be shown once.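 Protocol summary: plate cells (96-well), add compound at 5 concentrations, incubate 48 h, interpolate endpoints linearly. GI50: concentration for 50% inhibition of growth. TGI is the concentration that stops growth completely.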

What was measured:
Test in all cases: inhibition of tumour cell growth, NCI panel, 48 h
MALME-3M melanoma = tested on: MALME-3M melanoma
OVCAR-4 ovarian = tested on: OVCAR-4 ovarian
UO-31 renal = tested on: UO-31 renal
SK-MEL-5 melanoma = tested on: SK-MEL-5 melanoma
LOX IMVI melanoma = tested on: LOX IMVI melanoma
MOLT-4 leukemia = tested on: MOLT-4 leukemia
NCI-H23 lung = tested on: NCI-H23 lung
SN12C renal = tested on: SN12C renal
OVCAR-3 ovarian = tested on: OVCAR-3 ovarian
SNB-19 CNS = tested on: SNB-19 CNS

SMILES | TGI (MALME-3M melanoma) | TGI (OVCAR-4 ovarian) [µM] | TGI (UO-31 renal) [µM] | TGI (SK-MEL-5 melanoma) [µM] | TGI (LOX IMVI melanoma) [µM] | TGI (MOLT-4 leukemia) [µM] | TGI (NCI-H23 lung) [µM] | TGI (SN12C renal) [µM] | TGI (OVCAR-3 ovarian) [µM] | TGI (SNB-19 CNS) [µM] | GI50 (MALME-3M melanoma) | GI50 (OVCAR-4 ovarian) | GI50 (UO-31 renal) [µM] | GI50 (SK-MEL-5 melanoma) [µM] | GI50 (LOX IMVI melanoma) [µM] | GI50 (MOLT-4 leukemia) [µM] | GI50 (NCI-H23 lung) [µM] | GI50 (SN12C renal) [µM] | GI50 (OVCAR-3 ovarian) [µM] | GI50 (SNB-19 CNS) [µM]
CCSc1nc(COC(=O)NC)c(COC(=O)NC)n1C | > 100 µM | > 84.7 | > 100 | > 100 | > 100 | > 100 | > 100 | > 100 | > 100 | > 100 |  |  |  |  |  |  |  |  |  | 
CC(=O)NC(CCCN(Cc1ccccc1)C(=O)N(CCCl)N=O)C(=O)NCc1ccccc1 (configuration not stated) | > 75.6 µM | > 100 | > 100 | > 76.7 | > 57.1 | 97.5 | > 75.1 | > 100 | > 100 | > 100 |  |  |  |  |  |  |  |  |  | 
CC1CC2(CC[C@@H]1O)OCCO2 (some centres not stated) | > 100 µM | > 100 | > 100 | > 100 | > 100 | > 100 | > 100 | > 100 | > 100 | > 100 |  |  |  |  |  |  |  |  |  | 
CCOC(=O)N1CCN(S(=O)(=O)c2oc(-c3ccc(Cl)cc3)nc2C#N)CC1 | 3.09 µM | 5.5 | 2.88 | 6.46 | 2.02 | 4.35 | 15.1 | 3.23 | 3.38 | 50.7 | 1.67 µM | 2.36 µM | 1.54 | 2.51 | 0.573 | 0.739 | 3.93 | 1.66 | 1.79 | 14.6
CCOc1ccc(NC(=O)CC2SC(N)=NC2=O)cc1 (configuration not stated) | > 100 µM | > 100 | > 100 | > 100 | > 100 | > 100 | > 100 | > 100 | > 100 | > 100 |  |  |  |  |  |  |  |  |  | 
CCOC(=O)N1C2C=C(C)C(C3C(C)C(=O)N31)N(C(=O)c1ccccc1)O2 (configuration not stated) | > 100 µM | > 100 | > 100 | > 100 | > 100 | > 100 | > 100 | > 100 | > 100 | > 100 |  |  |  |  |  |  |  |  |  | 
Clc1ccc(CN2COc3c(cc(Cl)c4cccnc34)C2)cc1 | 5.74 µM | 8.26 | 5.51 | 8.92 | 2.97 | 5.02 | 6.8 | 15.6 | 6.84 | 16 |  |  |  |  |  |  |  |  |  | 
COC(=O)[C@]1(C)CCC[C@@]2(C)C1CCC1=C[C@@]3(C(C)C)CC[C@]12OO3 (some centres not stated) | > 100 µM | > 100 | 40.2 | 33.3 | 60.1 | 83.1 | > 100 | > 100 | > 100 | > 100 |  |  |  |  |  |  |  |  |  | 
CN(C)c1ccc(N=Nc2c([O-])ccc3ccccc23)cc1.[C-]#[O+].[C-]#[O+].[Ir] | 33.4 µM | 47.8 | > 53.2 | > 57.7 | 40.5 | 59.5 | 54.9 | 34.5 | 45.6 | > 100 | 15.7 µM | 25.4 µM | 26.7 | 24.9 | 18.6 | 12.6 | 19.4 | 17 | 20.7 | > 100
COc1ccccc1-c1c(C)nn2c(NCc3ccccn3)cc(C)nc12 | > 50 µM | > 50 | > 50 | 49.6 | > 50 | > 50 | > 50 | > 50 | > 50 | > 50 | > 17.1 µM | 2.32 µM | 10.2 | 14.8 | 29.8 | 7.68 | 48.7 | 29.9 | 2.58 | > 50
Cc1cc(N2CCCC2)nc(N(CCCNc2ccnc3cc(Cl)ccc23)Cc2ccc3c(c2)OCO3)n1 | 3.2 µM | 8.22 | 3.71 | 2.9 | 2.35 | 4.64 | 15.5 | 11.3 | 2.87 | 12.7 | 1.65 µM | 1.86 µM | 0.677 | 1.53 | 1.03 | 1.3 | 2.36 | 1.76 | 1.06 | 2.45
CC(C)OC(=O)c1ccc2[nH]c(O)c(C(=Nc3ccc(N(C)C(=O)CN4CCN(C)CC4)cc3)c3ccccc3)c2c1 | 2.29 µM | 2.48 | 1.31 | 1.8 | 1.43 | 2.16 | 2.42 | 1.6 | 2.02 | 2.33 | 0.859 µM | 1.02 µM | 0.278 | 0.541 | 0.298 | 0.274 | 0.583 | 0.0977 | 0.55 | 0.921
Clc1ccc2nc(Oc3ccccc3)cnc2c1 | > 100 µM | > 100 | > 100 | > 100 | > 100 | > 100 | > 100 | > 100 | > 100 | > 100 | > 100 µM | > 100 µM | > 100 | > 100 | > 100 | > 100 | > 100 | > 100 | > 100 | > 100
CCOC(=O)c1cnn(-c2ccnc3c(C(F)(F)F)cccc23)c1N | > 100 µM | > 100 | > 100 | > 100 | > 100 | > 100 | > 100 | > 100 | > 100 | > 100 | > 100 µM | > 100 µM | > 100 | > 100 | > 100 | > 100 | > 100 | > 100 | > 100 | > 100
NCc1ccc(-n2c(-c3nonc3N)nc3cnccc32)cc1 | > 25 µM | > 25 | > 25 | > 25 | > 25 | > 25 | > 25 | > 25 | > 25 | > 25 | > 25 µM | > 25 µM | 0.442 | 9.25 | 17.1 | 12.3 | > 25 | 7.61 | 7.13 | > 25
Fc1ccc(Nc2nc(NCCNc3ccnc4cc(Cl)ccc34)nc(N3CCOCC3)n2)cc1 | 4.52 µM | 23.1 | 16.5 | 4.62 | 10.1 | 16.5 | 30.2 | 25 | 24.5 | 25.9 | 2.76 µM | 10.7 µM | 3.52 | 2.15 | 2.95 | 4.16 | 14.6 | 11.6 | 11.9 | 12.4
O=C1c2ccccc2C(=O)C1C(c1ccc([N+](=O)[O-])cc1)C1C(=O)c2ccccc2C1=O | > 100 µM | > 100 | > 100 | > 100 | 32.5 | > 100 | > 100 | > 100 | 34.1 | > 100 |  |  |  |  |  |  |  |  |  | 
COC(=O)C(Cc1nc2ccc(Cl)cc2[nH]c1=O)C(=O)C(=O)Nc1ccccc1[N+](=O)[O-] (configuration not stated) | > 100 µM | > 100 | > 100 | > 100 | > 100 | > 100 | > 100 | > 100 | > 100 | > 100 |  |  |  |  |  |  |  |  |  | 
CCO[C@@H]1C2C=CC(C2)[C@H]1[N+](=O)[O-] (some centres not stated) | > 100 µM | > 100 | > 100 | > 100 | > 100 | > 100 | > 100 | > 100 | > 100 | > 100 |  |  |  |  |  |  |  |  |  | 
Cc1cccc(C)c1NC(=O)CCCC(=O)C1CCC/C1=N\NC(=O)C(=O)NN (configuration not stated) | > 100 µM | > 100 | > 100 | > 100 | > 100 | > 100 | > 100 | > 100 | > 100 | > 100 |  |  |  |  |  |  |  |  |  | 
CCc1c[nH]c2ncnc(N3CC[C@@](N)(CNC(=O)c4ccc(F)cc4F)C3)c12 | > 91.2 µM | > 100 | > 100 | > 100 | > 100 | > 81.2 | > 100 | > 100 | > 100 | > 100 | 33.4 µM | 77.2 µM | 33.7 | 32.8 | 31.1 | 18.7 | 26.4 | 32.1 | 69.1 | 44.8
C=C(C)CCC(C)N1CCC(N2CCC(C(=O)NCCc3ccccc3)CC2)CC1 (configuration not stated) | 26.9 µM | 73 | 25.3 | 16.8 | 35.5 | > 100 | > 100 | > 100 | > 100 | > 100 | 11.8 µM | 5.97 µM | 11 | 4.2 | 15.8 | 45.9 | 31.3 | 55.5 | 53.7 | 58.9
Oc1cc(Cl)ccc1Oc1ccc(Cl)cc1Cl | 6.83 µM | 9.41 | 12 | 3.59 | 3.86 | 11.3 | 5.5 | 11.4 | 17.2 | 13.7 | 2.37 µM | 2.79 µM | 2.76 | 1.75 | 1.87 | 3.74 | 2.07 | 3.12 | 5.21 | 3.66
Cc1ccc2c(c1)ncn2-c1ncnc2c1CC(C)c1ccccc1N2C (configuration not stated) | 4.6 µM | 24.7 | 7.11 | 1.32 | 13 | 4.36 | 19.4 | 15.6 | 0.409 | 20.7 | 0.0513 µM | 0.624 µM | 0.317 | 0.138 | 0.124 | 0.0607 | 0.428 | 0.444 | 0.0389 | 0.17
C=C[C@]1(C)C=C2C(=O)[C@@]3(O)OC[C@@]4(CCCC(C)(C)C43O)C2(O)C(O)C1 (some centres not stated) | 3.02 µM | 5.47 | 3 | 27.8 | 6.48 | 15.2 | 8.51 | 23.2 | 5.9 | > 69 | 1.36 µM | 2.32 µM | 1.34 | 14.5 | 1.96 | 3.09 | 2.71 | 8.4 | 2.52 | 23.3
CCc1c2c(nc3cccc(N)c13)-c1cc3c(c(=O)n1C2)COC(=O)[C@]3(O)CC | 2.3 µM and 3.11 µM | > 100 | 0.397 |  | 0.182 | 0.15 |  | 38.7 |  | 0.0512 | 0.0448 µM and 0.011 µM | 0.104 µM and 0.0238 µM | 0.0516 | 0.00329 | 0.00461 | < 0.001 | 0.00327 | < 0.001 | 0.237 | 0.00176
O=C(O)CCC1CCc2cccc3occ1c23 (configuration not stated) | > 100 µM | > 100 | > 100 | > 100 | > 100 | > 100 | > 100 | > 100 | > 100 | > 100 |  |  |  |  |  |  |  |  |  | 
COc1cc(/C=C(/c2ccccc2)[N+](=O)[O-])c(OC)c2c1OCO2 | 3.21 µM | 3.15 | 2.54 | 3.14 | 2.44 | 6.41 | 3.41 | 3.79 | 2.63 | 2.95 | 1.53 µM | 1.74 µM | 1.28 | 1.75 | 1.14 | 1.86 | 1.73 | 1.56 | 1.32 | 1.58
O=[N+]([O-])c1ccc(CS(=O)Cc2ccccc2)cc1 (configuration not stated) | > 100 µM | > 100 | > 100 | > 100 | > 100 | > 100 | > 100 | > 100 | > 100 | > 100 |  |  |  |  |  |  |  |  |  | 
CC[CH2][Pb]([CH2]CC)([CH2]CC)[NH]S(=O)(=O)c1ccc(C)cc1 | 0.174 µM | 0.307 | 0.274 | 0.142 | 0.0655 | 4.51 | 0.0375 | 0.172 | 0.0625 | 0.143 | 0.0431 µM | 0.0682 µM | 0.143 | 0.0555 | 0.025 | 0.0746 | 0.0178 | 0.0681 | 0.024 | 0.0349
